“And” between values parts separate entries of the source, which are not always exact repeats. Equal entries are not always repeated. Structures can show the parent of a compound that is named as a salt. Where two headings read alike, the source gives them in different places. Marks after values point to notes of the source that are not given here.
Key:
[1] = test system: colorectal cancer model mice induced by AOM/DSS; assay: Colorectal cancer model mice induced by AOM/DSS; format: in vivo, C57b1/6j mice; details: 250 mg/kg by gavage, two weeks on, one week off, 12 weeks
Procedure: C57b1/6j mice were randomly grouped according to the above experimental grouping scheme, five mice in the normal control group, and ten other groups.
After one week's normal pre-feeding, normal feeding was done for another two weeks. From the 3rd week on, 0.5% carboxymethylcellulose sodium water solution was administered by gavage in the amount of 10 ml/kg. Administration mode was such that the drug was administered once a day for 12 weeks until the end of the experiment.
After one week of normal pre-feeding, AOM was given by intraperitoneal injection at a dose of 10 mg/kg (Prepared by a concentration of 10 mg AOM in 10 ml of normal saline). Then the animals were fed normally for one week, which was recorded as the first week of the experiment. At the beginning of the second week, mice were allowed to drink the drinking aqueous solution containing 2% DSS freely for one week. […] From the 3rd week on, 0.5% carboxymethylcellulose sodium water solution was administrated by gavage at the amount of 10 ml/kg. The administration mode was such that the drug was administered once a day for 12 weeks until the end of the experiment. (3) Positive Drug Capecitabine Group
After one week of normal pre-feeding, AOM was given by intraperitoneal injection at a dose of 10 mg/kg (Prepared by a concentration of 10 mg AOM in 10 ml of normal saline). Then the animals were fed normally for one week, which was recorded as the first week of the experiment. At the beginning of the second week, mice were allowed to drink the drinking water solution containing 2% DSS freely for one week. […] The administration lasted for 12 weeks (including the weeks of drug withdrawal).
After one week of normal pre-feeding, AOM was given by intraperitoneal injection at a dose of 10 mg/kg (prepared by a concentration of 10 mg AOM in 10 ml of normal saline). Then the animals were fed normally for one week, which was recorded as the first week of the experiment. At the beginning of the second week, mice were allowed to drink the drinking water solution containing 2% DSS freely for one week. […] The administration mode was such that the drug was administered once a day, up to the end of the experiment. The administration lasted for 12 weeks.
The calculation method of calculated tumor burden value is as follows: Tumor burden=(Mean tumor diameter/numbers of mice)^2×(Tumor number/numbers of mice)

[2] = Alcohol-solubility examination in 95% ethanol under refluxing; format: physicochemical; details: per gram of compound, within 30 minutes
Procedure: The compounds of the invention were weighed and placed into different amount of 95% ethanol solvent under refluxing, respectively. The dissolution status within 30 minutes was observed. If there were no visible solute particle, it would be regarded as complete dissolution.

[3] = Hydrosolubility examination in pure water; format: physicochemical; details: per milliliter of purified water, 25° C.±2° C., visual, within 30 minutes
Procedure: The compounds of the invention were weighed and placed into a certain amount of pure water solvent under 25° C.±2° C., respectively. […] If there were no visible solute particle, it would be regarded as complete dissolution.

[4] = test system: C57b1/6j mice model of ulcerative colitis induced by DSS; assay: Acute ulcerative colitis model induced by dextran sodium sulfate (DSS); format: in vivo; details: for Percentage of colon contracture: compared to colon length in normal control group; for body weight loss percentage: compared with body weight at the beginning of the experiment; for Body weight change rate: end versus start
Procedure: (1) Animals: C57b1/6j mice, male (20-22 g); seven mice in each group.
(3) Dosage and times of administration: The positive drug was 500 mg/kg, both dihydrocoptisine and the compounds of the invention were 100 mg/kg, once a day for eight days.
(4) Experimental methods: The method of this experiment was a literature method: see Zhi-Hui Zhang, Hai-Jing Zhang, An-Jun Deng, Bo Wang, Zhi-Hong Li,
Yang Liu, Lian-Qiu Wu, Wen-Jie Wang, and Hai-Lin Qin. Synthesis and Structure-activity Relationships of Quaternary Coptisine Derivatives as Potential Anti-ulcerative Colitis Agents. Journal of Medicinal Chemistry. 2015, 58, 7557-7571.
The effect of the compounds of the invention on the disease activity index (DAI) and the inhibition rate of DAI in the C57b1/6j mice model of ulcerative colitis induced by DSS was investigated. […] In Table 5, **, P<0.01, compared with the normal control group; ^#, P<0.05 and ^##, P<0.01, compared with the model group.

[5] = test system: acute ear swelling model of mice caused by croton oil; assay: Acute ear swelling model of mice caused by croton oil; format: in vivo, Balb/c mice; details: 5 mg/kg by gavage
Procedure: (1) Animals: Balb/c mice, male (20-22 g); eight mice in each group.
(4) Experimental methods: the mice in the model group were administrated 0.9% normal saline (dosage volume: 10 ml/kg) by the intragastrical administration. In the positive drug group, the positive drug was prepared by 5 mg/kg of dosage using 0.9% normal saline as the solvent and was administrated by gavage (dosage volume: 10 ml/kg). In the compounds of the invention administration groups, the compounds were prepared by 100 mg/kg of dosage using 0.9% normal saline as the solvent and were administrated by gavage (dosage volume: 10 ml/kg). After the last administration, all mice were induced to inflammation by daubing 20 μl of croton oil acetone solution on both sides of the right ear, the left ear not daubed as normal control ear. After 4 hours of modeling, the mice were killed, the ears were cut off along the auricle baseline, and the ear pieces of each subject were taken off at the counterpart place of each ear with a perforator and weighed. The difference between the weight of the right ear piece and that of the left ear piece indicated the degree of inflammatory swelling. The inhibition rate of drugs on ear swelling (%) was calculated by comparing the ear swelling degree values of each administration group and positive drug group with the data of model group. Inhibition rate (%)=[(swelling degree of model group−swelling degree of administration group)/swelling degree of model group]×100 (%)
(5) Statistical analysis: The experimental results were expressed as ‘mean±sd’. The statistical differences between the two groups were calculated and analyzed by t-test method. ^#, indicates P<0.05 (compared with the model group); and ^##, P<0.01 (compared with the model group).

Escherichia coli = assay: MIC by twofold microdilution broth method; format: cell-based; details: 24 h, read-out: MIC E. coli
Procedure: (§1) (1) Strains: Staphylococcus aureus, Escherichia colt, Candida albicans MCC (F) 98001.
(§2) (2) Experimental method: the anti-bacterial activity of the compounds of the invention was evaluated by determining the minimum inhibitory concentration (MIC) using the twofold microdilution broth method. The compounds of the invention and the reference substances (quaternary ammonium salt substrates of berberine-type alkaloids and levofloxacin) were prepared into a 20000 μg/ml stock solution with DMSO for use. S. aureus and E. coli were diluted using MHB (Mueller Hinton Broth) medium, and C. albicans using Sabouraud medium, all prepared into 10^6 CFU (colony forming unit) concentration as bacterial suspensions for use. The determination steps of MIC are as follows. First, 180 μl of MHB medium (for S. aureus and E. coli) or Sabouraud Medium (for C. albicans) was transferred to the first well in each row of the sterile 96 well plate, and 100 μl to the second to the 11th wells of each row, and 200 μl to the 12th well as negative blank control well. 20 μl sample stock solution was taken and added to the first well. After mixed up, 100 μl was taken from the first well and transferred to the second well. The same as mentioned above, the second well was mixed up, 100 μl of mixed content was taken from the second well and added to the third well, as described above. As such, the same operation was continued till the 10th well, and finally 100 μl of content was drawn from the 10th well and discarded. The bacterial suspension of 100 μl was added to each of the aforementioned from first to eleven wells and mixed up. Three parallel groups for each sample were set up. The 96 well plates were put into the incubator to culture for 24 h. […] The MIC values of each sample to be tested as well as those of the references were observed and recorded with the naked eyes.

[6] = test system: Candida albicans MCC (F) 98001; assay: MIC by twofold microdilution broth method; format: cell-based; details: 24 h; for MIC: Candida albicans, read-out: MIC C. albicans
Procedure: as §1, §2

Staphylococcus aureus = assay: MIC by twofold microdilution broth method; format: cell-based; details: 24 h; for MIC: Staphylococcus aureus, read-out: MIC S. aureus
Procedure: as §1, §2

[7] = 100 mg/kg, listed as dihydrocoptisine
[8] = Sabouraud medium, 25° C., stock solution 20000 μg/ml

For `CCCCCOC(=O)Nc1nc(=O)n([C@@H]2O[C@H](C)[C@@H](O)[C@H]2O)cc1F` [Capecitabine], the Spleen weight [1] was 0.228 ± 0.029 g, the “Tumor burden (relatively calculated value)” value [1] was 42.69 ± 10.26 piece and the Spleen weight ([1]; listed as capecitabine) was 0.228 ± 0.029 g. For the same compound, the “Tumor burden (relatively calculated value)” value ([1]; listed as capecitabine) was 42.69±10.26 piece.
With `ClC(Cl)c1c2c3c(ccc2cc2[n+]1CCc1cc4c(cc1-2)OCO4)OCO3.O=C([O-])/C=C\C(=O)O` [Compound 25, 8-dichloromethyl coptisine hydrogen maleate] the “amount of 95% ethanol solvent required for dissolving each gram” value (“amount of 95% ethanol solvent required” for short) [2] was 23 mL.
In the case of `COc1ccc2cc3[n+](c(C(Cl)Cl)c2c1OC)CCc1cc2c(cc1-3)OCO2.O=C([O-])/C=C\C(=O)O` [Compound 27, 8-dichloromethyl berberine hydrogen maleate], the “amount of 95% ethanol solvent required” value [2] is reported as 5.8 mL and the “amount dissolved in each milliliter of water” value (“amount dissolved” for short) [3] is reported as 3.83 mg.
For `Cc1ccc(S(=O)(=O)[O-])cc1.ClC(Cl)c1c2c3c(ccc2cc2[n+]1CCc1cc4c(cc1-2)OCO4)OCO3` [Compound 29, 8-dichloromethyl coptisine tosylate], the “amount of 95% ethanol solvent required” value [2] was 24 mL.
With `COc1ccc2cc3[n+](c(C(Cl)Cl)c2c1OC)CCc1cc2c(cc1-3)OCO2.Cc1ccc(S(=O)(=O)[O-])cc1` [Compound 31, 8-dichloromethyl berberine tosylate] the “amount of 95% ethanol solvent required” value [2] was 7 mL and the “amount dissolved” value [3] was 5.0 mg.
In the case of `COc1ccc2cc3[n+](c(C(Cl)Cl)c2c1OC)CCc1cc2c(cc1-3)OCO2.O=S(=O)([O-])c1ccccc1` [Compound 47, 8-dichloromethyl berberine benzenesulfonate], the “amount of 95% ethanol solvent required” value [2] is reported as 7 mL and the “amount dissolved” value [3] is reported as 6.45 mg.
In the case of `C1=C2c3cc4c(cc3CCN2Cc2c1ccc1c2OCO1)OCO4` [Dihydrocoptisine, dihydrocoptisine], the Colon length ([4]; 100 mg/kg) is reported as 6.23 ± 0.14^## cm, the DAI ([4]; 100 mg/kg) is reported as 2.24 ± 0.97^## and the DAI inhibition rate ([4]; 100 mg/kg) is reported as 44.03^## %. For the same compound, the “Body weight (g) X ± SD End” value ([4]; 100 mg/kg once a day for eight days) was 18.43 ± 2.01 g, the “Percentage of colon contracture” value ([4]; 100 mg/kg) was 23.93^## % and the “Percentage of colon contracture” value [4, 7] was 23.93%. For the same compound, the “body weight loss percentage” value ([4]; 100 mg/kg) was 18.77%, the “Body weight change rate” value ([4]; 100 mg/kg) was −18.77^# % and the Colon length [4, 7] was 6.23 cm. It also gave a DAI inhibition rate [4, 7] of 44.03%.
With `COc1ccc2c(c1)c(CC(=O)O)c(C)n2C(=O)c1ccc(Cl)cc1` [Indomethacin] the “Inhibition rate (ear swelling)” value [5] was 26.01^# %, the Degree of swelling ([5]; 4 hours after croton oil) was 70.26 ± 20.97 mg and the “Inhibition rate (ear swelling)” value ([5]; listed as indomethacin) was 26.01%.
With `C[C@H]1COc2c(N3CCN(C)CC3)c(F)cc3c(=O)c(C(=O)O)cn1c23` [Levofloxacin] the MIC (Escherichia coli; MHB medium, 37° C.) was < 1.95 µg/mL, the MIC [6, 8] was > 250 µg/mL and the “MIC C. albicans” value [6, 8] was “more than 250 ug/mL”. The MIC (Staphylococcus aureus; MHB medium, 37° C.) was < 1.95 µg/mL.
With `O=C(O)c1cc(/N=N/c2ccc(S(=O)(=O)Nc3ccccn3)cc2)ccc1O` [SASP, salazosulfapyridine] the Colon length ([4]; 500 mg/kg) was 5.90 cm and 5.90 ± 0.30^# cm, the DAI ([4]; 500 mg/kg) was 3.07 ± 1.01^# and the DAI inhibition rate ([4]; 500 mg/kg) was 23.33%. The “Body weight (g) X ± SD End” value ([4]; 500 mg/kg once a day for eight days) was 15.86 ± 1.58 g, the “Percentage of colon contracture” value ([4]; 500 mg/kg) was 28.43% and the “body weight loss percentage” value ([4]; 500 mg/kg) was 27.70%. For the same compound, the “Body weight change rate” value ([4]; 500 mg/kg) was −27.70%.
In the case of `COc1ccc2cc3[n+](cc2c1OC)CCc1cc2c(cc1-3)OCO2` [berberine hydrochloride], the MIC (Escherichia coli; MHB medium, 37° C.) is reported as 250 µg/mL, the MIC [6, 8] is reported as 250 µg/mL and the “MIC C. albicans” value [6, 8] is reported as 250 µg/mL. The “MIC S. aureus” value (Staphylococcus aureus; MHB medium, 37° C.) was 125 µg/mL, the MIC (Staphylococcus aureus; MHB medium, 37° C.) was 125 µg/mL and the “amount dissolved” value [3] was < 2 mg.
With `c1c2c(cc3c1OCO3)-c1cc3ccc4c(c3c[n+]1CC2)OCO4` [coptisine hydrochloride] the MIC (Escherichia coli) was > 250 µg/mL, the MIC [6] was 250 µg/mL and the “MIC C. albicans” value [6, 8] was 250 µg/mL. The “MIC S. aureus” value (Staphylococcus aureus; MHB medium, 37° C.) was “more than 250 ug/mL”, the MIC (Staphylococcus aureus) was > 250 µg/mL and the “amount dissolved” value [3] was “less than 1 mg”.
